# Laboratory results: patent US20080227799A1, “CXCR4 Antagonists Including Heteroatoms for the Treatment of Medical Disorders” (priority 2006, published 2008)
# “Also recorded” adds a separate entry of the source.
# How the values were obtained:
# CXCR4 [1] = target: T1, CXCR4 (Homo sapiens, UniProt P61073); experiment: Competition assay using biotin-labeled TN14003 and streptavidin-conjugated rhodamine on tumor cells; assay type: binding
# T1 construct: endogenous in cells; probably MDA-MB-231
# Source text: In a separate embodiment, a process for screening potential drug candidates is provided. The process includes providing a labeled peptide-based CXCR4 antagonist that has a detectable signal when bound to a CXCR4 receptor; contacting a CXCR4 receptor with at least one test molecule at a known concentration to form a test sample; contacting the test sample with the peptide-based antagonist; separately, contacting the peptide-based antagonist to a sample not including any test molecule to form a control sample; and comparing the signal from the test sample to the signal from the control sample. In a specific subembodiment, the peptide-based antagonist is derived from TN14003 (described in PCT Publication No. WO 04/087068 to Emory University). In a further subembodiment, the antagonist is labeled with a biotin molecule and the signal is elicited when the biotin-labeled antagonist is contacted with a streptavadin-conjugated signal molecule.
# The peptide-based antagonist is typically a molecule with high affinity for the receptor. In one embodiment, the molecule is derived from the “T140” peptide antagonists. In a specific embodiment, the antagonist is TN14003 (described in PCT Publication No. WO 04/087068 to Emory University). The receptor is typically expressed in a cell line. The process can be performed as a dose-response curve. In this embodiment, the test compound is incubated with the receptor at varying concentrations and the signal elicited after binding of the labeled antagonist is measured and compared to control, as well as to each other.
# Using biotin-labeled TN14003 along with streptavidin-conjugated rhodamine allowed a determination of the binding efficiency of these chemicals to the SDF-1 binding site of CXCR4 on tumor cells and compared it to AMD3100-SDF-1 interactions (FIG. 7). […] Cells were pre-incubated with different concentrations of AMD3100. […] Therefore, one of these compounds, WZZL811S, was selected to study its therapeutic potential based on potency and low toxicity to cells (FIG. 9).
# [2] = test system: CXCR4/SDF-1-mediated Akt activation; experiment: SDF-1-stimulated Akt phosphorylation in MDA-MB-231 cells (western blot); assay type: cell-based; conditions: for SDF-1-stimulated phosphorylation of Akt: MDA-MB-231 cells, 100 ng/ml SDF-1, 30 min, dose-dependent; for concentration blocking Akt activation: 100 ng/ml SDF-1, 30 minutes, 0-1000 nM tested
# Procedure: (§1) CXCR4/SDF-1 interaction activates PI3K/Akt and Ras/Raf/MEK/Erk pathways in a Gαi protein (PTX-sensitive)-dependent manner. Experiments were conducted to determine the effect of blocking CXCR4/SDF-1 interaction by either TN14003 or AMD3100 at different concentrations (0, 0.01, 0.1, 1, 10, 100, 1000 nM) on phosphorylations of Akt and Erk1/2 signaling. Incubating cells with 100 ng/ml of SDF-1 for 30 minutes activated Akt. […] However, the increase in Erk1/2 phosphorylation by SDF-1 was not significant as the increase in Akt phosphorylation.
# MDA-MB-231 cells [3] = experiment: Matrigel invasion assay, CXCR4/SDF-1-mediated invasion; assay type: cell-based; conditions: 2 nM
# Procedure: Lowering CXCR4 mRNA levels by siRNAs inhibited CXCR4/SDF-1-mediated invasion as measured by a matrigel invasion assay. The CXCR4 ligand, SDF-1 (400 ng/ml) was added to the lower chamber to attract CXCR4-positive breast cancer cells to migrate through the matrigel. The invasion of MDA-MB-231 cells transfected with siRNA1 decreased to 39±4% of the control cells, 51±8% with siRNA2, and only 16±6% with both siRNA1+2 (FIG. 3A).
# WZZL811S was tested in a matrigel invasion assay to determine whether it can inhibit CXCR4/SDF-1-mediated invasion.
# MDA-MB-231 cells [4] = experiment: Cell viability of MDA-MB-231 cells; assay type: cell-based; conditions: 100 μM (the highest concentration tested)
# metastatic 686LN cells = experiment: 686LN head & neck cancer metastasis model, tail vein injection, FDG-PET; assay type: in vivo; conditions: 20 mg/mouse/twice weekly; thirty days
# Procedure: The metastatic 686LN cells were injected intravenously through the tail vein to generate experimental animal models for Head & Neck cancer metastasis, modulated via CXCR4. […] These 3-D projection images show lung metastases well (bone mets and liver mets were apparent in axial section images of mice in control groups, data not shown).
# [5] = test system: human umbilical vein endothelial cells (HUVECs); experiment: Endothelial capillary tube formation assay; assay type: cell-based; conditions: 100 nM; SDF-1 100 ng/ml; 18 hours
# Procedure: The anti-angiogenic effect of test compounds was measured by analyzing endothelial cell growth and tube formation. The angiogenic effect of SDF-1 (100 ng/ml) on capillary formation by human umbilical vein endothelial cells (HUVECs) was examined in vitro using Matrigel-coated 24-well plates precoated with Matrigel and incubated for 18 hours. The angiogenic effect of SDF-1 was inhibited by either 100 nM TN14003 (peptide-based CXCR4 antagonist) or WZZL811S treatment (FIG. 14a, graph FIG. 14b).
# SHIV = SHIV infection of model cells, p27 antigen capture; assay type: cell-based; conditions: 0.1, 1, 10 or 100 nM drug prior to infection
# Procedure: The effect of the test compounds on HIV infection in model cells was analyzed by p27 antigen capture using SHIV infected cells. Cells were incubated with 0, 0.1, 1, 10 or 100 nM drug prior to infection with SHIV. Viral titer was measured after infection by analyzing levels of p27 antigen. […] The inhibition was measurable at 2 days, and continued to 5 day incubations.
# [6] = test system: CXCR4/SDF-1-mediated Erk1/2 phosphorylation; experiment: SDF-1-stimulated Erk1/2 phosphorylation; assay type: cell-based; conditions: data not shown
# Procedure: as §1
# CXCR4 [7] = experiment: CXCR4 protein levels after treating cells; assay type: cell-based; conditions: treated cells
# CXCR4 [8] = target: T1, CXCR4; experiment: Immunofluorescence of biotin-labeled TN14003 on MDA-MB-231 cells preincubated with SDF-1; assay type: binding; conditions: 400 ng/ml SDF-1, 10 min
# Procedure: Initially, experiments were performed to verify that TN14003 binds to the predicted SDF-1 binding sites on the CXCR4 receptor. In these studies, MDA-MB-231 cells were incubated in the absence (FIG. 1A, B) or presence (FIG. 1A, C) of 400 ng/ml of SDF-1α for 10 min, and then fixed in ice-cold acetone. Immunofluorescence of the biotin-labeled TN14003 was negative in both membrane and cytosol in the cells pretreated with SDF-1α for 10 min (FIG. 1A, C).
# HIV = conditions: MT-4 cells; read-out: concentration required for 50% protection of HIV-induced cytopathogenicity; cited from earlier work
# MT-4 cells = conditions: cited from earlier work
# [9] = withdrawn from clinical trials; cited from earlier work
# T1 sequence (P61073 whole entry): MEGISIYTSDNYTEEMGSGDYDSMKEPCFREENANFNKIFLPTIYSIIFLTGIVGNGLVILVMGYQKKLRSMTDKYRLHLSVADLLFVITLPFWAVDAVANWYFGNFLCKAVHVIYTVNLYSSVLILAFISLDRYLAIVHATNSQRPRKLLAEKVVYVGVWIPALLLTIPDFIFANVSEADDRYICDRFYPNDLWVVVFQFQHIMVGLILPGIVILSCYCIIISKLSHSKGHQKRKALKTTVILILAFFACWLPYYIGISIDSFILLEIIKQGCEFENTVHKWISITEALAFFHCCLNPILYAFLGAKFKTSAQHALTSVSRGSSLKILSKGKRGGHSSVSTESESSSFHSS
Compound,SDF-1-stimulated phosphorylation of Akt [2],CXCR4/SDF-1 mediated invasion of MDA-MB-231 (MDA-MB-231 cells [3]),angiogenic effect of SDF-1 on capillary tube formation [5],SHIV infection (p27 antigen levels) (SHIV),concentration blocking Akt activation [2],effect on CXCR4 protein levels (CXCR4 [7]),also measured
c1ccc(NCc2ccc(CNc3ccccn3)cc2)nc1 [WZZL811S],blocked,as potent as TN14003; also recorded: blocked,inhibited,inhibited SHIV infection at all concentrations tested,,,"IC50 (CXCR4 [1]; cells pre-incubated with various concentrations, read-out: IC50, detection of CXCR4 by biotin-labeled TN14003 on pre-incubated cells): < 1 nM; binding affinity to the ligand-binding site of CXCR4 on tumor cells (CXCR4 [1]; competition with biotin-labeled TN14003): nano-molar concentration; cell viability of MDA-MB-231 cells (MDA-MB-231 cells [4]): did not decrease cell viability; efficacy relative to TN14003 (metastatic 686LN cells): 80%"
c1cnc(NCc2ccc(CNc3ncccn3)cc2)nc1 [WZ40],,,,inhibited SHIV infection at all concentrations tested,,,
TN14003,blocked,blocked,inhibited,,sub-nano molar concentration,did not affect,concentration attenuating Erk1/2 phosphorylation (in words) [6]: sub-nano molar concentration; metastasis of 686LN cells to organs (FDG-PET) (metastatic 686LN cells): failed to metastasize to any organs; binding of biotin-labeled TN14003 to CXCR4 after SDF-1 preincubation (CXCR4 [8]): negative; also recorded: blocked; EC50 (HIV): 0.6 nM; concentration leading to 50% toxicity (MT-4 cells): 410 µM
C1=CC(CN2CCCNCCNCCCNCC2)CC=C1CN1CCCNCCNCCCNCC1 (stereo not shown) [AMD3100],blocked,,,,a few nano molar,did not affect,concentration needed to compete against biotin-labeled TN14003 (CXCR4 [1]; cells pre-incubated with different concentrations): 10 µM; concentration attenuating Erk1/2 phosphorylation [6]: 100 nM; side effect in clinical study [9]: cardiac-related side effect
